Source: patent US8334253B2, “Cosmetic and dermatological formulations of MNTF peptides” (Dermacare Neuroscience Institute, priority 2008, dated 2012)
Peptide text beside a SMILES is read from it. * marks the point of attachment. Palmitoyl = CCCCCCCCCCCCCCCC(=O)*

Tests used:
Type in all cases: cell-based
[1] = tested on: cellular peroxide levels in human epidermal keratinocytes; experiment: Cellular peroxide levels in keratinocytes, DCFH-DA dye and flow cytometry, with and without exogenous H2O2
Description: Hydrogen peroxide can induce damages to skin cells. The dermal protective efficacy of Pal-hexapeptide was assessed by measuring basal peroxide levels in the presence and absence of the compound.
Basal peroxide production, generated by normal cellular metabolism, induce gradual development of low levels of peroxide-specific cellular fluorescence.
Extracellular peroxides (e.g., H2O2 added exogenously) can permeate the cell membrane and cause a rapid and dramatic increase in the peroxide-specific fluorescence of the cell. Cellular peroxides levels can be measured by flow cytometry using the peroxide-specific dye, 2′,7′-dichlorofluorescein diacetate (DCFH-DA). DCFH-DA is initially non-fluorescent and is rapidly concentrated within living cells by an enzyme-dependent process. […] The results of the assay indicates if a test compound functions as an oxidant or an anti-oxidant in a cellular system. If the test article functions as an anti-oxidant, this assay can also be used to determine if the test compound can permeate the cell membrane to quench intracellular peroxide or if it can only affect extracellular peroxide levels (Bass et al., 1983, J. Immunol. 130:1910-1917; Bombick et al., 1992, Toxicol. Meth. 2:255-264).
Human primary keratinocytes, generally on the third passage, were seeded in T75 flasks and cultured until 70-80% confluent. A cell suspension was created and these cells were loaded with the dye DCFH-DA. The pre-incubated cells were exposed to dilutions of the Pal-hexapeptide having the amino acid sequence SEQ ID NO: 2 in two triplicate sets per dilution. One triplicate set was incubated with H2O2 (exogenous source of peroxide), and both sets were stained with Propidium Iodide. Cell viability and peroxide production were determined by fluorescence readings on a FACScan flow cytometer. Peroxide value increases or decreases of 25% or more compared to vehicle control values are considered biologically significant.

human keloid fibroblasts = experiment: Human keloid fibroblast proliferation kinetic study; conditions: for inhibition of proliferation of human keloid fibroblasts: cell counts on days 1-4, Trypan blue exclusion
Description: Keloid can be characterized as a hyperproliferation/growth of fibrous scar tissue following trauma to the skin. […] Experimental protocols were based on a published study design for keloid fibroblast growth kinetics and is as described in Polo et al., 1999, Ann. Plastic Surg. 43 (2):185-190.
Briefly, fibroblasts were cultured from skin tissue obtained from fresh surgical specimens. The skin specimen was rinsed in 10 ml of calcium- and magnesium-free Dulbecco's phosphate-buffered saline (Sigma Chemical Co, St. Louis, Mo.) supplemented with gentamycin ([…]) for 30 minutes at room temperature. A second antibiotic rinse using 1% 10,000 U per milliliter penicillin G, 25 micrograms per milliliter amphotericin B, 10,000 micrograms per milliliter streptomycin sulfate solution (Gibco BRL, Gran Island, N.Y.) was performed for 10 minutes. The epidermis was separated from the dermis from each piece. The specimen was cut into four pieces of equal dimensions. Each piece was placed dermis-side down into a 60-mm culture dish containing Dispase solution (Collaborative Biomedical Products, Bedford, Mass.). The explants were incubated with no additional culture media for 15 minutes at 37° C. A total of 10 ml Dulbecco's modified Eagle's medium (DMEM; Gibco BRL) was added slowly to the culture dish, which was then incubated at 37° C. at 5% carbon dioxide. The cells were subcultured until 80% confluence was obtained. Trypsin-ethylenediaminetetraacetic acid (Gibco BRL) was added to […] the cells from the surface of the culture plate, and the cells were washed with DMEM and transferred to a centrifuge tube. […] The cells were counted using a hemocytometer, and their cell number was adjusted to 1×10^6 cells, which were then plated on a 35-mm Petri dish with 2 ml DMED and 1% fetal bovine serum, and incubated at 37° C. in 5% carbon dioxide. […]
Samples from each group were removed on days 1, 2, 3 and 4. The cells from each sample were trypsinized, washed, centrifuged, and resuspended in 1 ml DMEM; and were counted using the Trypan blue dye exclusion method and a hemocytometer.

[2] = tested on: hyaluronic acid levels in adult human dermal fibroblast (aHDF) conditioned media; experiment: Hyaluronic acid in fibroblast-conditioned medium (HA-ELISA); conditions: 96 h
Text: Hyaluronic acid (hyaluronan, HA), a naturally occurring carbohydrate polymer is a key component of connective, epithelial and neural tissues. HA participates in hydrodynamics, movement and proliferation of cells. This test was designed to determine whether a sample of palmitylated and non-palmitylated MNTF hexapeptide has an effect on hyaluronic acid levels in the adult human dermal fibroblast (aHDF) conditioned media.
Adult HDF (facial, passage 2, Cell Applications, San Diego, Calif. cat.#106-05A lot#1392) were plated in high glucose phosphate-free DMEM supplemented with 5% cosmic serum from Hyclone, Utah) at 6,000 cells per well and test materials were added the following day. Test materials were: Pal-Hexapeptide (palmitylated SEQ ID NO:2 as a lyophilized powder labeled APC 341055, lot V08150A1, received from DermaCare Neuroscience Institute), type I sterile water (negative control) and basic fibroblast growth factor (bFGF, positive control). Pal-Hexapeptide was dissolved in water at 20 mg/ml. Final concentrations tested were: 400, 200, 100, 50 and 25 ug/ml for DNP and 5 ng/ml for bFGF (plate 507). After 96 h, cell culture conditioned media were collected and 100 ul aliquotes were used for the HA assay. HA assay was performed using Hyaluronan Enzyme-Linked Immunosorbent Assay Kit (HA-ELISA, cat. #K-1200) from Echelon (Salt Lake City, Utah). The HA output was measured by following the generation of a chromophoric reaction product in 96 well plate, with the use of a BioRad microplate reader at 410 nm and the effect of the test materials was determined using the formula: Absorbance 410 (sample)/Absorbance 410 (Zero HA)×100.
Adult HDF (facial, passage 2, Cell Applications, San Diego, Calif. cat.#106-05A lot#1392) were plated in high glucose phosphate-free DMEM supplemented with 5% cosmic serum from Hyclone, Utah) at 6,000 cells per well and test materials were added the following day. Test materials were: hexapeptide (SEQ ID NO:2 (non-palmitylated), lyophilized powder lot #D294, received from DermaCare Neuroscience Institute), type I sterile water (negative control) and basic fibroblast growth factor (bFGF, positive control). Pal-Hexapeptide was dissolved in water at 20 mg/ml. Final concentrations tested were: 2000, 1000, 500 and 250 ug/ml for hexapeptide and 5 ng/ml for bFGF (plate 507). After 96 h, cell culture conditioned media were collected and 100 ul aliquotes were used for the HA assay. HA assay was performed using Hyaluronan Enzyme-Linked Immunosorbent Assay Kit (HA-ELISA, cat. #K-1200) from Echelon (Salt Lake City, Utah). The HA output was measured by following the generation of a chromophoric reaction product in 96 well plate, with the use of a BioRad microplate reader at 410 nm and the effect of the test materials was determined using the formula: Absorbance 410 (sample)/Absorbance 410 (Zero HA)×100.

In the case of `CCCCCCCCCCCCCCCC(=O)N[C@@H](Cc1ccccc1)C(=O)N[C@@H](CO)C(=O)N[C@@H](CCCNC(=N)N)C(=O)N[C@@H](Cc1ccc(O)cc1)C(=O)N[C@@H](C)C(=O)N[C@@H](CCCNC(=N)N)C(=O)O` [Pal 6 mer, Pal-FSRYAR] (Palmitoyl-FSRYAR-OH; C-terminus assumed), the “peroxide level, % of the control, endogenous peroxide assay without exogenous H2O2” value ([1]; 0.79 mM, endogenous peroxide) is reported as 40.21%, the “peroxide level, % of the control, assay with exogenous added peroxide” value ([1]; 0.79 mM, exogenous H2O2 added) is reported as 9.88% and the “Cell viability, expressed as % of non-viable, treated versus not treated cells” value ([1]; keratinocytes, Propidium Iodide staining) is reported as “about the same”. For the same molecule, the “inhibition of human keloid fibroblast cells, dose response study” value (human keloid fibroblasts; 10^−5 M or 10 micrograms per milliliter) was “highly effective”, the “inhibition of proliferation of human keloid fibroblasts” value (human keloid fibroblasts; listed as MNTF) was “statistically significant” and the “inhibition of proliferation of human keloid fibroblasts” value (human keloid fibroblasts; listed as Pal-Hexapeptide) was “dose-dependent reduction/inhibition”. For the same molecule, the “stimulation of hyaluronic acid in the fibroblast-conditioned medium” value (“stimulation of hyaluronic acid” below) ([2]; 50 ug/ml) was “about 15%”, the “stimulation of hyaluronic acid” value ([2]; 100 ug/ml) was “about 15%” and the “stimulation of hyaluronic acid” value ([2]; 200 ug/ml) was 40%. For the same molecule, the “stimulation of hyaluronic acid” value ([2]; 400 ug/ml) was 40%.
